# Measured values: patent US20180221362A1, “EZH2 INHIBITORS AND MODULATION OF REGULATORY T-CELL FUNCTION” (Constellation Pharmaceuticals, Inc., priority 2015, published 2018)
# Legend:
# [1] = system: CT26 mouse colon carcinoma cells; experiment: In vitro growth/sensitivity of CT26 carcinoma cells; type: cell-based; conditions: FIG. 9
# Text: (§1) We first evaluated whether treatment treatment of CT26 cancer cells would be sensitive to EZH2 ihibition. Protocols using CT26 cancer cells as a model for testing immunotherapy protocols and in studies on host immune response are known.
# CD8 T cells are known to be major effectors of anti-tumor efficacy in mice and humans. We also explored immune cell changes beyond what our in vitro experiments had predicted, and found several unanticipated observations. First, natural killer (NK) and NKT cells, also major drivers of anti-tumor activity were increased in Inhibitor 1-treated animals, while reduced in the αPD1 group (FIG. 12). This effect was also clear if groups treated with the EZH2 inhibitor were analyzed together, and against groups not treated with the EZH2 inhibitor (FIG. 7). Second, M2 tumor associated macrophages (TAM), known to be immuno-suppressive, reduced in Inhibitor 1-treated animals, while increased in αPD1-treated animals (FIG. 13). This effect was also observed if groups treated with the EZH2 inhibitor were analyzed together, and against groups not treated with the EZH2 inhibitor (FIG. 8). Similar results were also seen with Inhibitor 4. Growth of CT26 mouse colon carcinoma cells was assessed in the presence of increasing amounts of Inhibitor 4 concentrations. […].
# H3K27me3 = H3K27me3 levels in treated FOXP3+ T-cells; type: cell-based, human; conditions: FIG. 3B
# human Treg cells = experiment: Luminex cytokine assays of day 4 iTreg culture supernatants; type: cell-based; conditions: day 4 supernatants; FIG. 3C
# Text: Luminex cytokine assays. Cytokines were quantified from day 4 cell supernatants using Luminex multiplex assays (HTH17MAG-14K-12, Millipore), as per the manufacturer's protocol.
# The transcription factor FOXP3 is known to be an essential regulator of Treg cells, and therefore is important to understand if EZH2 plays any role in its expression.
# [2] = system: tumor-infiltrating immune cells; experiment: FACS analysis of tumor-infiltrating immune cells in CT26 tumors; type: in vivo, mouse; conditions: tumors isolated day 22
# Protocol: (§2) Tumor implantation and dosing. CT26 mouse colon carcinoma cells (ATCC CRL-2638) were expanded in vitro and 1×10^5 cells/mouse were inoculated with 50% Matrigel into the subcutaneous flank region of 6-8 week old female BABL/C mice (Taconic). Mice were randomized once tumors were palpable (>200 mm^3) and dosing was started on the same day. […] Tumors were measured and body weight recorded every 2-3 days.
# Isolation and analysis of tumor-infiltrating cells. Tumors were chopped into small pieces, digested with 3 mg/mL collagenase A and 100 μg/mL DNase I at 37° C. for 30 mins, followed by the addition of FBS. The digested tumor mass was filtered using […] filters, spun down and washed with PBS Immune cells were visualized and quantifed by FACS on the BD FACSCanto™ II flow cytometry analyzer (BD Bioscience).
# The observed efficacy pictured in FIG. 11 was accompanied by changes in the immune infiltrate present in the tumors. Tumors were isolated from mice upon termination of the study (day 22), digested and stained for immune markers allowing for quantification of immune cell populations by FACS. […] Consistent with the reduced efficacy observed in the αPD1 group, we found increased proliferating Treg cells in this group along with decreased proliferating cytotoxic CD8 cells, especially when compared to the combination group (FIG. 11). This effect was also clear if groups treated with the EZH2 inhibitor were analyzed together, and against groups not treated with the EZH2 inhibitor (FIG. 6).
# FOXP3 = FOXP3 expression by flow cytometry during Treg differentiation; type: cell-based, human; conditions: increasing concentrations, vs DMSO control; FIG. 3A
# [3] = system: CT26 mouse colon carcinoma cells; experiment: CT26 allograft transplantation tumor model; type: in vivo; conditions: BALB/c mice, 21-day treatment; Inhibitor 1 200 mg/kg s.c. BID, PD-1 antibody 200 μg/mouse IP every 3-4 days; FIG. 10
# Protocol: as §2, §1
# CD8 T cells are known to be major effectors of anti-tumor efficacy in mice and humans. We also explored immune cell changes beyond what our in vitro experiments had predicted, and found several unanticipated observations. […] This effect was also clear if groups treated with the EZH2 inhibitor were analyzed together, and against groups not treated with the EZH2 inhibitor (FIG. 7). […] This effect was also observed if groups treated with the EZH2 inhibitor were analyzed together, and against groups not treated with the EZH2 inhibitor (FIG. 8). […] Growth of CT26 mouse colon carcinoma cells was assessed in the presence of increasing amounts of Inhibitor 4 concentrations. […]
smiles,measurement,setting,value
CCS(=O)(=O)N1CCC([C@@H](C)n2c(C)c(C(=O)NCc3c(OC)cc(C)[nH]c3=O)c3ccccc32)CC1 [Inhibitor 1],CT26 cell sensitivity in vitro,[1],substantially no CT26 cell sensitivity
same,H3K27me3 in the same (FOXP3+) cells,H3K27me3,robustly decreased
same,secretion of IFNγ to the culture medium,human Treg cells,dose-dependent increase
same,secretion of IL-10 to the culture medium,human Treg cells,dose-dependent increase
same,secretion of IL-13 to the culture medium,human Treg cells,dose-dependent increase
same,NKT cells in tumors,[2]; FIG. 12,increased
same,natural killer (NK) cells in tumors,[2]; FIG. 12,increased
same,M2 tumor associated macrophages (TAM) in tumors,[2]; FIG. 13,reduced
same,FOXP3 expression (frequencies of FOXP3+ cells),FOXP3,no impact
same,tumor growth inhibition efficacy (CT26 tumor volume),[3],significantly efficacious
